Test results taken from US5006549A, “Novel 7-aroyl-4-hydroxy-3-methyl-benzofurans as dual inhibitors of cyclooxygenase and 5-lipoxygenase” (priority 1989, dated 1991).
Like-named read-outs stand apart in the source and are kept apart here.

What was measured:
5-lipoxygenase = conditions: cited from earlier work
[1] = system: animal models of inflammation; conditions: several animal models; cited from earlier work
cyclooxygenase [2] = conditions: bovine seminal vesicle microsomal enzyme preparation; read-out: IC50 against cyclooxygenase; cited from earlier work
[3] = molecular target: T1, Ram seminal vesicle microsomal cyclooxygenase (Ovis aries, UniProt P05979); experiment: Ram Seminal Vesicle Microsomal Cyclooxygenase Assay (RSV CO); type: biochemical; conditions: for IC50: RSV cyclooxygenase, mean values of at least two titrations; for activity in the CO assay: reference compounds
T1 construct: Ram seminal vesicular glands were trimed of excess fat; from tissue; host or cells: ram seminal vesicular glands, microsomes (105K×g pellet)
T1 sequence (P05979 25-600): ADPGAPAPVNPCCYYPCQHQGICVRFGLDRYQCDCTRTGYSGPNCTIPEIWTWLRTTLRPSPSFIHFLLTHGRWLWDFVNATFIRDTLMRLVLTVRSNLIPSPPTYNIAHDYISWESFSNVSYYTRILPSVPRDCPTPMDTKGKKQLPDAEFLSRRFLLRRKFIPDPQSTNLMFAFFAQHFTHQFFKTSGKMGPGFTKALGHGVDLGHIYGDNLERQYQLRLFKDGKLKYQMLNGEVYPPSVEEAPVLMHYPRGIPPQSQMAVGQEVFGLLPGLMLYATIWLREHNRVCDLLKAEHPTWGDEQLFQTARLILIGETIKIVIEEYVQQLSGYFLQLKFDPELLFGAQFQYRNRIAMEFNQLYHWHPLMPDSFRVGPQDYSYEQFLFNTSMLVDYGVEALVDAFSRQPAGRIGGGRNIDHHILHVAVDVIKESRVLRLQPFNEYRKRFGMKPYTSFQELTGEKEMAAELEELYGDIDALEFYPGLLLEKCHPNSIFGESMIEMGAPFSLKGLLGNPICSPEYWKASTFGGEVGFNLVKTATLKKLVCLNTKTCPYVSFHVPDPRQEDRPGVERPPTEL
Method: Compounds of formula I were also evaluated in accordance with the ram seminal vesicle microsomal cyclooxygenase (RSV CO) assay.
Ram Seminal Vesicle Microsomal Cyclooxygenase Assay (RSV CO)
Ram seminal vesicular glands were trimed of excess fat, 50 gm diced into ice cold 0.1M potassium phosphate (pH 7.6) buffer and homoginized using a Brinkman Polytron. The suspension was centrifuged 10 min. at 10K×g (4°) and the supernatant filtered through two cheesecloth layers. The filtrate was centrifuged 160 min. at 105K×g. The supernatant was discarded and the pellet surface rinsed with a small volume of buffer. The pellets were combined in a small volume, briefly homoginized with the Polytron and frozen in 0.5 mL aliquots at -80°. The protien concentration was ~50 mg/mL. […] The thawed enzyme was diluted 1:63 with 0.125M sodium EDTA (pH 8.0) containing 50 mg/ml BSA. A substrate cofactor premix was prepared with 66 mL 14C-arachidonic acid (~20K cpm/12.5 mL) in 500 mL 0.125 M sodium EDTA (pH 8.0) plus 10 mL 50 mM hydroquinone and 10 mL 200 mM glutathione. To each sample well in the 96 well plate agents were added disolved in 0.5 mL DMSO followed by 12.5 mL of the diluted enzyme. After a 4 minute preincubation at room temperature 12.5 mL of the substrate cofactor mix was added to start the reaction. The reaction was killed after 20 minutes at room temperature by adding 25 mL methanol containing 200 mg PGE2 and 400 mg AA per mL. The entire reaction mixture was spotted onto a preadsorbent silica gel GF thin layer plate and, after air drying 45 minutes developed 12 cm in ethyl acetate:glacial acetic acid (99:1). The developed lanes were scanned for the distribution of radiolabel using a Bioscan Imaging Detector and the integrated peaks compared to standards and controls yielding percent inhibition.

[4] = system: LTB4 production in PMN (LO); experiment: PMN LTB4 Assay (inhibition of LTB4 production in rat PMN); type: cell-based, male Sprague-Dawley rats; conditions: for IC50: leukotriene biosynthesis in rat PMN, mean values of at least two titrations
Method: Male Sprague-Dawley rats (~350 g) were injected intraperitoneally the day before use with 8 mL of 12% sodium caseinate. The next day the animals were killed by CO2 asphyxiation and the peritoneal cavity lavaged twice with 20 mL of Hanks balanced salts containing 15 mM HEPES (pH 7.4), 1.4 mM Ca^++ and 0.7 mM Mg^++ (Hepes-Hanks). The suspensions were filtered through plastic mesh and centrifuged at 260×g for 5 minutes. The cells were resuspended in 50 ml Hepes-Hanks and recentrifuged. The PMN pellets were combined and suspended at 1.25×10^7 cells/mL. The cell suspension was diluted 1:10, preincubated 5 minutes at 37° and distributed into 96 well microtiter plates with […]. The wells had previously received samples, controls, ect., in 25 mL of 0.001% fatty acid free BSA in Hepes-Hanks. The plates were incubated 2 min. at 37° and then the cells were stimulated to produce LTB4 by the addition of 25 mL of […]. After 4 minutes the plates were frozen in dry ice. The frozen plates were thawed to 4° and 25 mL aliquots removed to V-well plates. Antibody to LTB4 (50 mL) was added in and after 15 minutes at room temperature, 50 mL of ^3 H-LTB4 was added and the plates were stored overnight at 4° to allow equilibration. The next day the "free" 3HLTB4 was removed by adsorption to dextran coated charcoal ([…]/well of a 4% charcoal suspension with 0.25% Dextran T-70 in 10 mM potassium phosphate (pH 7.3) containing 1 mM EDTA and 0.25 mM thimerasol) durring a 10 minute ice temperature incubation. The charcoal was removed by a 10 minute centrifugation at 260×g. Aliquots of the supernatant were counted in a Packard 460, analyzed in a Masscomp computer (programs "filhariala and fhariasa") and the data reported as percent inhibition of LTB4 production.

[5] = system: LTB4 biosynthesis in intact rat PMN; conditions: cited from earlier work
cyclooxygenase [6] = conditions: cited from earlier work

SMILES | IC50 [3] [nM] | IC50 [4] [nM] | also measured
CC(C)(C)c1cc(C(=O)c2cccs2)cc(C(C)(C)C)c1O [A, 2,6-di-tert-butyl-4-(2-thienoyl) phenol] |  |  | potency at inhibiting guinea pig lung 5-lipoxygenase relative to cyclooxygenase (5-lipoxygenase; compared with bovine seminal vesicle cyclooxygenase): fortyfold less potent; IC50 (5-lipoxygenase; guinea pig lung, read-out: IC50 against guinea pig lung 5-lipoxygenase): 20000 nM; antiinflammatory activity in animal models of inflammation [1]: novel antiinflammatory agent in several animal models of inflammation; IC50 (cyclooxygenase [2]): 500 nM
Cc1coc2c(C(C)(C)C)ccc(O)c12 [Compound 10a, 3-Methyl-4-hydroxy-7-tert-butylbenzofuran] |  | 2100 | inhibition at 1000 µg/mL ([3]; read-out: % inhibition (CO)): 1%
Cc1coc2c(C(C)(C)C)cc(C(C)(C)C)c(O)c12 [Compound 10b, 3-Methyl-4-hydroxy-5,7-di-tert-butylbenzofuran] |  |  | inhibition at 10000 µg/mL ([3]; read-out: % inhibition (CO)): 0%; inhibition at 1000 µg/mL ([4]; Rattus norvegicus, at 1 mg/ml): 37%
CCCc1cc(Cl)c2oc(Cc3ccccc3)c(C)c2c1O [Compound B] |  |  | IC50 [5]: 240 nM; potency on cyclooxygenase relative to LTB4 biosynthesis inhibition (selectivity) (cyclooxygenase [6]; RSV CO versus intact rat PMN): a hundred times less potent; IC50 (cyclooxygenase [6]; RSV CO): 25000 nM
CC(C)Cc1ccc(C(C)C(=O)O)cc1 (centres unmarked) [ibuprofen, reference compound] |  |  | activity in the CO assay [3]: displaying activity
COc1ccc2c(c1)c(CC(=O)O)c(C)n2C(=O)c1ccc(Cl)cc1 [indomethacin, reference compound] |  |  | activity in the CO assay [3]: displaying activity

The next lines start with results.

IC50 [3] [nM] | IC50 [4] [nM] | SMILES | also measured
800 | 2700 | Cc1coc2c(C(=O)c3cccs3)ccc(O)c12 [Compound 3, 3-Methyl-4-hydroxy-7-(2-thienoyl)benzofuran] | 
5600 | 6700 | C=CCc1cc(C(=O)c2cccs2)c2occ(C)c2c1O [Compound 4, 3-methyl-4-hydroxy-5-(2-propen-1-yl)-7-(2-thienoyl)benzofuran] | 
1300 | 1700 | CCCc1cc(C(=O)c2cccs2)c2occ(C)c2c1O [Compound 5, 3-Methyl-4-hydroxy-5-propyl-7-(2-thienoyl)benzofuran] | 
1300 | 3500 | Cc1coc2c(C(=O)c3ccccc3)ccc(O)c12 [Compound 6, 3-Methyl-4-hydroxy-7-benzoylbenzofuran] | 
54000 | 600 | Cc1coc2ccc(C(C)(C)C)c(O)c12 [Compound 12b, 3-Methyl-4-hydroxy-5-tert-butylbenzofuran] | 
1000 | 1500 | Cc1coc2c(C(=O)c3cccs3)cc(C(C)(C)C)c(O)c12 [Compound 14, 3-Methyl-4-hydroxy-5-tert-butyl-7-(2-thienoyl)-benzofuran] | 
1300 | 1100 | Cc1coc2c(C(=O)c3ccccc3)cc(C(C)(C)C)c(O)c12 [Compound 16, 3-Methyl-4-hydroxy-5-tert-butyl-7-benzoylbenzofuran] | 
1200 | 4400 | Cc1coc2c(C(=O)c3ccc(Cl)cc3)cc(C(C)(C)C)c(O)c12 [Compound 19, 3-Methyl-4-hydroxy-5-tert-butyl-7-p-chlorobenzoylbenzofuran] | 
